What was measured:
[1] = biological target: T1, SUMO protein fused to eGFP (Homo sapiens, UniProt P55854); assay: Binding of Biotin-MyDI to control SUMO-eGFP fusion protein; details: SUMO-eGFP coated, Streptavidin-HRP read-out
T1 construct: His tag; made in house; host or cells: E. coli BL21 C43 (DE3)

[2] = biological target: T2, human MyD88 TIR domain (aa 150–296) (Homo sapiens, UniProt Q99836); assay: Competitive binding assay, Biotin-MyDI on recombinant SUMO-MyD88-TIR; details: SUMO-MyD88-TIR 8 µg/ml coated, Streptavidin-HRP read-out
T2 construct: human MyD88 TIR domain residues 150–296; His tag; made in house; host or cells: E. coli BL21 C43 (DE3)
T2 sequence (Q99836 150-296): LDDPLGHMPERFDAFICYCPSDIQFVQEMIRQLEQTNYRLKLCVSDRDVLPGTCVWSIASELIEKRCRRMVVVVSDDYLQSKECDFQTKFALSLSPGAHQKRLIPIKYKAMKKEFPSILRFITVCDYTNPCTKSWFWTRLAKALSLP
Source text: A synthetic DNA fragment corresponding to the cDNA encoding human MyD88 TIR domain residues 150–296 with BamH/Xhol restriction enzymes was from IDT (Integrated DNA technologies, IA, USA). DNA was amplified with the Ready-mix PCR kit (Sigma), and ligated (New England BioLabs, MA, USA) with the restriction enzymes BamH and Xhol (TaKaRa, Kusatsu, Shiga Prefecture, Japan) to pETM-11 SUMO3GFP fusion vector for protein expression in E. coli, a gift from the EMBL protein expression and purification core facility. Plasmids were gel purified with PureLink Quick Gel Extraction kit (Invitrogen, San Diego, CA, USA), sequence verified, and transformed to (C2987) NEB Dh5a competent cells (New England BioLabs) and amplified with a QIAGEN plasmid midiprep kit. The recombinant fusion protein- SUMO-MyD88-TIR was expressed in E. coli BL21 C43 (DE3) cells (Lucigen, WI, USA). E. coli BL21 C43(DE3) were grown in 2xYT medium containing 1% glucose, […] MgSO4 and 20xNPS (100 mM PO4, 25mMSO4, 50 mM NH4. 100 mM Na, 50 mM K) up to mid-log phase (O.D-0.6) in 37 °C and then were grown o.n at 25 °C with 0.4 mM IPTG (Sigma). […]
The recombinant SUMO-MyD88-TIR protein (8 µg/ml) was attached to polystyrene microtiter 96 well plates (Nunc, Roskilde, Denmark) at 4 °C o.n. […] After 5 min, 2 N sulfuric acid stop solution was added and absorbance was read at 450 nm in an Infinite 200 Pro plate reader (Tecan). […]

With “Biotin-MyDI: Biotinylated linear BB loop peptide RDVLPGT, from Bio Basic Inc.” the “binding to control fusion protein” value [1] was “did not bind at any concentration” and the “binding to the MyD88 TIR domain” value [2] was “bound the TIR domain in a concentration dependent manner”.
